According to US8778921B2, “Ansamycin hydroquinone compositions” (Infinity Pharmaceuticals, Inc., priority 2008, dated 2014):
Structures can show the parent of a compound that is named as a salt.

Assay: Stability at 40° C. and 75% relative humidity (percent purity by HPLC)
Type: physicochemical
Conditions: 40° C. and 75% RH; for Percent Purity of 17-AAG T = 0 Days / Percent Purity of 17-AAG T = 21 Days: Table 8; for Percent Purity of 17-BAG T = 0 Days / Percent Purity of 17-BAG T = 21 Days: Table 4; for Percent Purity of 17-FEAG T = 0 Days / Percent Purity of 17-FEAG T = 21 Days: Table 6
Method: As used herein, a “stable composition” refers a composition comprising a sulfur-containing compound and a baseline amount of the compound of formula (I) (e.g., such as percent purity as measured by HPLC) such that, after being subjected to standard stability conditions (e.g., 40° C. and 75% relative humidity) for a specified period of time (e.g., 1 day, 2 days, 3 days, 4 days, 5 days, 7 days, 14 days, 21 days, or 30 days), at least about 80% of the original amount of the compound of formula (I) remains in the composition (i.e., has not oxidized to a compound of formula (II) or degraded to other by-products). In certain embodiments, at least about 85%, at least about 90%, at least about 91%, at least about 92%, at least about 93%, at least about 94%, or at least about 95% of the original amount of the hydroquinone compound of formula (I) remains in the composition for a specified period of time (e.g., 1 day, 2 days, 3 days, 4 days, 5 days, 7 days, 14 days, 21 days, or 30 days).
The stability data for 17-AG-HQ of Example 2 when kept at 40° C. and 75% relative humidity (RH) is depicted in FIG. 8 (see Table 2 for tabulated stability data). It was observed that 17-AG-HQ of Example 2 completely oxidizes to its quinone form in two weeks at 40° C. and […] as determined by HPLC.

[1] = Table 14, formulations of 17-AG-HQ of Example 3
[2] = Table 15, NaHSO3/mineral oil formulation of 17-AG-HQ of Example 3

## C=CCNc1c(O)cc2c(O)c1C[C@@H](C)C[C@H](OC)[C@H](O)[C@@H](C)/C=C(\C)[C@H](OC(N)=O)[C@@H](OC)/C=C\C=C(/C)C(=O)N2 [17-AAG-HQ of Example 11A, 17-allylamino-geldanamycin hydroquinone]
  stability over a period of time compared to 17-AAG-HQ of Example 11B: greater stability
T = 0 Days
  Percent Purity of 17-AAG T = 0 Days: 99%
T = 21 Days
  Percent Purity of 17-AAG T = 21 Days: 97%

## C=CCNc1c(O)cc2c(O)c1C[C@@H](C)C[C@H](OC)[C@H](O)[C@@H](C)/C=C(\C)[C@H](OC(N)=O)[C@@H](OC)/C=C\C=C(/C)C(=O)N2 [17-AAG-HQ of Example 11B, 17-allylamino-geldanamycin hydroquinone]
T = 0 Days
  Percent Purity of 17-AAG T = 0 Days: 97%
T = 21 Days
  Percent Purity of 17-AAG T = 21 Days: 2%
Table 19, Example 11B Formulations, T = 0 Days
  Percent Purity of 17-AAG-HQ T = 0 Days: 97%
Table 19, Example 11B Formulations, T = 21 Days
  Percent Purity of 17-AAG-HQ T = 21 Days: 2%

## CO[C@H]1/C=C\C=C(/C)C(=O)Nc2cc(O)c(N)c(c2O)C[C@@H](C)C[C@H](OC)[C@H](O)[C@@H](C)/C=C(\C)[C@@H]1OC(N)=O [17-AG-HQ of Example 3, 17-amino-geldanamycin hydroquinone]
  stability over a period of time compared to 17-AG-HQ of Example 2: greater stability
Table 2, T = 0 Days
  Percent Purity of 17-AG-HQ T = 0 Days: 97%
Table 2, T = 2 Days
  Percent Purity of 17-AG-HQ T = 2 Days: 93%
Table 2
  Percent Purity of 17-AG-HQ T = 5 Days: 91%
  Percent Purity of 17-AG-HQ T = 14 Days: 87%
  Percent Purity of 17-AG-HQ T = 30 Days: 79%
Table 2, T = 21 Days
  Percent Purity of 17-AG-HQ T = 21 Days: 81%
Table 14, formulations of 17-AG-HQ of Example 3, T = 0 Days
  Percent Purity of 17-AG-HQ T = 0 Days: 97%
[1]
  Percent Purity of 17-AG-HQ T = 5 Days: 91%
  Percent Purity of 17-AG-HQ T = 14 Days: 87%
Table 14, formulations of 17-AG-HQ of Example 3, T = 21 Days
  Percent Purity of 17-AG-HQ T = 21 Days: 81%
Table 15, NaHSO3/mineral oil formulation of 17-AG-HQ of Example 3, T = 0 Days
  Percent Purity of 17-AG-HQ T = 0 Days: 97%
[2]
  Percent Purity of 17-AG-HQ T = 5 Days: 91%
  Percent Purity of 17-AG-HQ T = 14 Days: 87%
Table 15, NaHSO3/mineral oil formulation of 17-AG-HQ of Example 3, T = 21 Days
  Percent Purity of 17-AG-HQ T = 21 Days: 81%

## CO[C@H]1/C=C\C=C(/C)C(=O)Nc2cc(O)c(N)c(c2O)C[C@@H](C)C[C@H](OC)[C@H](O)[C@@H](C)/C=C(\C)[C@@H]1OC(N)=O [17-AG-HQ of Example 4, 17-amino-geldanamycin hydroquinone]
  stability over a period of time compared to Examples 2 and 3: greater stability
Table 2, T = 0 Days
  Percent Purity of 17-AG-HQ T = 0 Days: 99%
Table 2
  Percent Purity of 17-AG-HQ T = 30 Days: 97%

## CO[C@H]1/C=C\C=C(/C)C(=O)Nc2cc(O)c(N)c(c2O)C[C@@H](C)C[C@H](OC)[C@H](O)[C@@H](C)/C=C(\C)[C@@H]1OC(N)=O [17-AG-HQ of Example 5, 17-amino-geldanamycin hydroquinone]
  stability over a period of time compared to Examples 2, 3 and 4: greatest stability
Table 2, T = 0 Days
  Percent Purity of 17-AG-HQ T = 0 Days: 99%
Table 2
  Percent Purity of 17-AG-HQ T = 30 Days: 98%

## CO[C@H]1/C=C\C=C(/C)C(=O)Nc2cc(O)c(N)c(c2O)C[C@@H](C)C[C@H](OC)[C@H](O)[C@@H](C)/C=C(\C)[C@@H]1OC(N)=O [17-AG-HQ of Example 6A, 17-amino-geldanamycin hydroquinone]
  stability over a period of time compared to 17-AG-HQ of Example 6B: greater stability
Table 2, T = 0 Days
  Percent Purity of 17-AG-HQ T = 0 Days: 97%
Table 2, T = 21 Days
  Percent Purity of 17-AG-HQ T = 21 Days: 83%

## CO[C@H]1/C=C\C=C(/C)C(=O)Nc2cc(O)c(N)c(c2O)C[C@@H](C)C[C@H](OC)[C@H](O)[C@@H](C)/C=C(\C)[C@@H]1OC(N)=O [17-AG-HQ of Example 6B, 17-amino-geldanamycin hydroquinone]
Determined by HPLC
  time in which the hydroquinone completely oxidizes to its quinone form: 3 weeks
Table 2, T = 0 Days
  Percent Purity of 17-AG-HQ T = 0 Days: 97%
Table 2, T = 21 Days
  Percent Purity of 17-AG-HQ T = 21 Days: 13%
Table 16, Example 6B Formulations, T = 0 Days
  Percent Purity of 17-AG-HQ T = 0 Days: 97%
Table 16, Example 6B Formulations, T = 21 Days
  Percent Purity of 17-AG-HQ T = 21 Days: 13%

## CO[C@H]1/C=C\C=C(/C)C(=O)Nc2cc(O)c(N)c(c2O)C[C@@H](C)C[C@H](OC)[C@H](O)[C@@H](C)/C=C(\C)[C@@H]1OC(N)=O [17-AG-HQ-HCl salt, 17-amino geldanamycin hydroquinone HCl Salt]
Table 2, T = 0 Days
  Percent Purity of 17-AG-HQ T = 0 Days: 99%
Table 2
  Percent Purity of 17-AG-HQ T = 14 Days: 88%
  Percent Purity of 17-AG-HQ T = 30 Days: 74%

## CO[C@H]1/C=C\C=C(/C)C(=O)Nc2cc(O)c(NCc3ccccc3)c(c2O)C[C@@H](C)C[C@H](OC)[C@H](O)[C@@H](C)/C=C(\C)[C@@H]1OC(N)=O [17-BAG-HQ of Example 8A, 17-benzylamino-geldanamycin hydroquinone]
  stability over a period of time compared to 17-BAG-HQ of Example 8B: greater stability
T = 0 Days
  Percent Purity of 17-BAG T = 0 Days: 98%
T = 21 Days
  Percent Purity of 17-BAG T = 21 Days: 96%

## CO[C@H]1/C=C\C=C(/C)C(=O)Nc2cc(O)c(NCc3ccccc3)c(c2O)C[C@@H](C)C[C@H](OC)[C@H](O)[C@@H](C)/C=C(\C)[C@@H]1OC(N)=O [17-BAG-HQ of Example 8B, 17-benzylamino-geldanamycin hydroquinone]
T = 0 Days
  Percent Purity of 17-BAG T = 0 Days: 98%
T = 21 Days
  Percent Purity of 17-BAG T = 21 Days: 11%
Table 17, Example 8B Formulations, T = 0 Days
  Percent Purity of 17-BAG-HQ T = 0 Days: 98%
Table 17, Example 8B Formulations, T = 21 Days
  Percent Purity of 17-BAG-HQ T = 21 Days: 11%

## CO[C@H]1/C=C\C=C(/C)C(=O)Nc2cc(O)c(NCCF)c(c2O)C[C@@H](C)C[C@H](OC)[C@H](O)[C@@H](C)/C=C(\C)[C@@H]1OC(N)=O [17-FEAG-HQ of Example 10A, 17-(2-fluoroethylamino)-geldanamycin hydroquinone]
  stability over a period of time compared to 17-FEAG-HQ of Example 10B: greater stability
T = 0 Days
  Percent Purity of 17-FEAG T = 0 Days: 99%
T = 21 Days
  Percent Purity of 17-FEAG T = 21 Days: 96%

## CO[C@H]1/C=C\C=C(/C)C(=O)Nc2cc(O)c(NCCF)c(c2O)C[C@@H](C)C[C@H](OC)[C@H](O)[C@@H](C)/C=C(\C)[C@@H]1OC(N)=O [17-FEAG-HQ of Example 10B, 17-(2-fluoroethylamino)-geldanamycin hydroquinone]
T = 0 Days
  Percent Purity of 17-FEAG T = 0 Days: 97%
T = 21 Days
  Percent Purity of 17-FEAG T = 21 Days: 0%
Table 18, Example 10B Formulations, T = 0 Days
  Percent Purity of 17-FEAG-HQ T = 0 Days: 97%
Table 18, Example 10B Formulations, T = 21 Days
  Percent Purity of 17-FEAG-HQ T = 21 Days: 0%
